Test results as given in US8598118B2, “Hepatocyte growth factor mimics as therapeutic agents” (Washington State University, priority 2011, dated 2013).
Structures can show the parent of a compound that is named as a salt. Where a SMILES comes first, the peptide text is derived from it. [ ]: non-standard residue; d: D form. dNle = CCCC[C@@H](N)C(=O)O; Nle = CCCC[C@H](N)C(=O)O; Ahx = NCCCCCC(=O)O

Assays:
Met = assay: Inhibition of HGF-dependent Met phosphorylation in HEK293 cells; assay type: cell-based, human; settings: 10 min
Method: HEK293 cells were seeded in 6 well tissue culture plates and grown to 95% confluency in DMEM containing 10% FBS. The cells were serum deprived for 24 h prior to the treatment to reduce the basal levels of phospho-Met. Following serum starvation, cocktails comprised of vehicle and HGF with/without 6-AH analogs were prepared and pre-incubated for 30 min at room temperature. The cocktail was then added to the cells for 10 min to stimulate the Met receptor and downstream proteins. Cells were harvested using RIPA lysis buffer (Millipore; Billerica, Mass.) fortified with phosphatase inhibitor cocktails 1 and 2 (Sigma-Aldrich; St. Louis, Mo.). The lysate was clarified by centrifugation at 15,000 nx g for 15 min, protein concentrations were determined using the BCA total protein assay (Pierce), and then appropriate volumes of the lysates were diluted with 2× reducing Laemmli buffer and heated for ten min at 95° C. Samples containing identical amounts of protein were resolved using SDS-PAGE (Criterion, BioRad Laboratories), transferred to nitrocellulose, and blocked in Tris-buffered saline (TBS) containing 5% milk for 1 h at room temperature. The phospho-Met antibody were added to the blocking buffer at a final concentration of 1:1000 and incubated at 4° C. overnight with gentle agitation. The membranes were then washed several times with water and TBS ([…], 0.05% Tween-20), a 1:5000 dilution of horseradish-peroxidase conjugated goat anti-rabbit antiserum was added, and the membranes further incubated for 1 h at room temperature. Proteins were visualized using the Supersignal West Pico Chemiluminescent Substrate system (Pierce, Fenton, Mo.) and molecular weights determined by comparison to protein ladders (BenchMark, Invitrogen, and Kaleidoscope, BioRad). Film images were digitized and analyzed using a UVP phosphoimager.

MDCK cells [1] = assay: Inhibition of HGF-dependent scattering in MDCK cells; assay type: cell-based, canine; settings: for inhibition of HGF-dependent MDCK cell scattering: 20 ng/ml HGF, 48 h
Method: (§1) MDCK cells were grown to 100% confluency on the coverslips in six-well plates and washed twice with PBS. The confluent coverslips were then aseptically transferred to new six well plates containing 900 μl serum free DMEM. Norleual, Hinge peptide, and/or HGF (20 ng/ml) were added to appropriate wells. Control wells received PBS vehicle. Plates were incubated at 37° C. with 5% CO2 for 48 hours. Media was removed and cells were fixed with methanol. Cells were stained with Diff-Quik Wright-Giemsa (Dade-Behring, Newark, Del.) and digital images were taken. Coverslips were removed with forceps and more digital images were captured. Pixel quantification of images was achieved using Image J and statistics were performed using Prism 5 and InStat v.3.05.
as §1, with “h.” for “hours.”, “v.3.05 (GraphPad; San Diego, Calif.).” for “v.3.05.”

hippocampal neurons [2] = assay: Spinogenesis in mRFP-β-actin transfected dissociated hippocampal neurons; assay type: cell-based, rat
Method: (§2) Hippocampal neurons (2×10^5 cells per square cm) were cultured from P1 Sprague Dawley rats on plates coated with poly-L-lysine from Sigma (St. Louis, Mo.; molecular weight 300,000). Hippocampal neurons were maintained in Neurobasal A media from Invitrogen (Carlsbad, Calif.) supplemented with B27 from Invitrogen, 0.5 mM L-glutamine, and […] cytosine-D-arabinofuranoside from Sigma added at 2 days in vitro. Hippocampal neurons were then cultured a further 3-7 days, at which time they were either transfected or treated with various pharmacological reagents as described in (Wayman, Davare et al. 2008).
(§3) Neurons were transfected with mRFP-β-actin on day in vitro 6 (DIV6) using LipofectAMINE™ 2000 (Invitrogen) according to the manufacturer's protocol. This protocol yielded the desired 3-5% transfection efficiency thus enabling the visualization of individual neurons. Higher efficiencies obscured the dendritic arbor of individual neurons. Expression of fluorescently tagged actin allowed clear visualization of dendritic spines, as dendritic spines are enriched in actin. On DIV7 the cells were treated with vehicle (H20) or peptides (as described in the text) added to media. On DIV 12 the neurons were fixed (4% paraformaldehyde, 3% sucrose, 60 mM PIPES, 25 mM HEPES, 5 mM EGTA, 1 mM MgCl2, pH 7.4) for 20 min at room temperature and mounted. Slides were dried for at least 20 hours at 4° C. and fluorescent images were obtained with Slidebook 4.2 Digital Microscopy Software driving an Olympus IX81 inverted confocal microscope with a 60× oil immersion lens, NA 1.4 and resolution 0.280 μm Dendritic spine density was measured on primary and secondary dendrites at a distance of at least 150 μm from the soma. Five 50 μm long segments of dendrite from at least 10 neurons per data point were analyzed for each data point reported. Each experiment was repeated at least three times using independent culture preparations. Dendrite length was determined using the National Institutes of Health's Image J 1.41o program (NIH, Bethesda, Md.) and the neurite tracing program Neuron J (Meijering, Jacob et al. 2004) Spines were manually counted.
as §2, with “centimeter)” for “cm)”, “P1-2” for “P1”, “the text or figure legends.” for “(Wayman, Davare et al. 2008).”

hippocampal neurons [3] = assay: Whole-cell recordings of AMPA-mediated mEPSCs; assay type: cell-based, rat
Male Sprague-Dawley rats = assay: Morris water maze with the HGF antagonist Hinge (Example 2)
Method: Male Sprague-Dawley rats (Taconic derived) weighing 390-450 g were maintained with free access to water and food (Harland Tekland F6 rodent diet, Madison, Wis.) except the night prior to surgery when food was removed. Each animal was anesthetized with Ketamine hydrochloride plus Xylazine (100 and 2 mg/kg im. respectively; Phoenix Scientific; St. Joseph, Mo., and Moby; Shawnee, Kans.). […] The guide cannula measured 2.5 cm in overall length and was prepared with a heat bulge placed 2.5 mm from its beveled tip, thus acting as a stop to control the depth of penetration. Once in position, the cannula was secured to the skull with two stainless-steel screws and dental cement. […]
A black circular platform (diameter: 12 cm; height: 24 cm) was placed 30 cm from the wall and submerged 2 cm below the water surface. […] The swimming path of the animals was recorded using a computerized video tracking system (Chromotrack; San Diego Instruments, CA). […] Swim speed was determined from these values. […]
Morris water maze data set mean latencies to find the platform during each daily block of five trials were calculated for each animal for each day of acquisition. […] Significant effects were analyzed by Newman-Keuls post-hoc test with a level of significance set at P<0.05.

MDCK cells [4] = assay: HGF-dependent MDCK cell proliferation (MTT); assay type: cell-based, canine; settings: analog 10^−10M, 4 days
Method: 5000 MDCK cells were seeded into the wells of a 96 well plates in 10% FBS DMEM. To induce cellular quiescence, the cells were serum deprived for 24 h prior to initiating the treatments. Following serum starvation, 10 ng/ml HGF alone and with various concentrations of 6-AH analogs or PBS vehicle were added to the media. The cells were allowed to grow under these conditions for 4 days with a daily addition of 6-AH analogs. On the fourth day, 1 mg/ml of […] (MTT, Sigma-Aldrich) prepared in PBS was added to the cells and incubated for 4 h. Dimethyl sulfoxide diluted in a 0.01M glycine buffer was added to solubilize the cell membranes and the absorbance of reduced MTT in the buffer was quantitated at 590 nm using a plate reader (Biotek Synergy 2, Winooski, Vt.). HGF-dependent proliferation was determined by subtracting the basal proliferation (in the absence of HGF) from total proliferation rates in groups containing HGF.

CA1 hippocampal neurons = assay: Spinogenesis in organotypic hippocampal slice cultures; assay type: cell-based, rat; settings: 10^−12 M, 2 days, organotypic slices
Method: (§4) Hippocampi from P4 Sprague Dawley rats were cultured as previously described (Wayman, Impey et al. 2006). Briefly, 400 μm slices were cultured on (Milipore, Billerica, Mass.) for 3 days after which they were biolistically transfected with tomato fluorescent protein (TFP) using a Helios Gen Gun (BioRad, Hercules, Calif.), according to the manufacturer's protocol, to visualize dendritic arbors. Following a 24 hour recovery period slices were stimulated with vehicle (H2O), 1 pM Nle1-AngIV or Dihexa for 2 days. Slices were fixed and mounted. Hippocampal CA1 neuronal processes were imaged and measured as described above.
as §4, with “Gene” for “Gen”, “with” for “with vehicle (H2O),”

c-Met receptor = molecular target: T1, c-Met receptor (Rattus norvegicus, UniProt P97523); assay: Effect of c-Met knock-down (shMet) on spinogenesis in hippocampal neurons; assay type: cell-based; settings: neurons transfected with mRFP-β-actin alone; 10^−12 M, 48 hours
T1 construct: Dissociated hippocampal neurons were transfected with mRFP-β-actin and shMet RNA; endogenous in cells; host or cells: dissociated hippocampal neurons from P1-2 Sprague Dawley rats
T1 sequence (P17945 33-495 partner limits assumed): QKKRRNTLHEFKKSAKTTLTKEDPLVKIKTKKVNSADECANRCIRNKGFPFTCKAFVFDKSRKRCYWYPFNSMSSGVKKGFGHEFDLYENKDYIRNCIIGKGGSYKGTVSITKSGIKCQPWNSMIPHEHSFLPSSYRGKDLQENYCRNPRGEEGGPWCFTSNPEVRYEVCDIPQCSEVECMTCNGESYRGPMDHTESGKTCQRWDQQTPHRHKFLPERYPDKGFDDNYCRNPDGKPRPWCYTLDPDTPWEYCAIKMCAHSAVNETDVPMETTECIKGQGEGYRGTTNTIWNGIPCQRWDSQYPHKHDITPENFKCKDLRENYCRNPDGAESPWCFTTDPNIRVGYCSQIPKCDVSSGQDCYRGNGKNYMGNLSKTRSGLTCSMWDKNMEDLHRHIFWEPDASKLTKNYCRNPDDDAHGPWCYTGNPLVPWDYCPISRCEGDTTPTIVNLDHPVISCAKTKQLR
T1 sequence (P17945 496-728 partner limits assumed): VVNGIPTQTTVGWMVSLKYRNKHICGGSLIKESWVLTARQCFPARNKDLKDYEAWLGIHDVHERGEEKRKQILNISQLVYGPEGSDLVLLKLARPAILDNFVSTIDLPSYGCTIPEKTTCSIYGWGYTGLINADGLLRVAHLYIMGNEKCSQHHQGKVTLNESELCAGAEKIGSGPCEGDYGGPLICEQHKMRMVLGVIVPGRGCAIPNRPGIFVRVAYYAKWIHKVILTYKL
T1 sequence (P97523 25-1382): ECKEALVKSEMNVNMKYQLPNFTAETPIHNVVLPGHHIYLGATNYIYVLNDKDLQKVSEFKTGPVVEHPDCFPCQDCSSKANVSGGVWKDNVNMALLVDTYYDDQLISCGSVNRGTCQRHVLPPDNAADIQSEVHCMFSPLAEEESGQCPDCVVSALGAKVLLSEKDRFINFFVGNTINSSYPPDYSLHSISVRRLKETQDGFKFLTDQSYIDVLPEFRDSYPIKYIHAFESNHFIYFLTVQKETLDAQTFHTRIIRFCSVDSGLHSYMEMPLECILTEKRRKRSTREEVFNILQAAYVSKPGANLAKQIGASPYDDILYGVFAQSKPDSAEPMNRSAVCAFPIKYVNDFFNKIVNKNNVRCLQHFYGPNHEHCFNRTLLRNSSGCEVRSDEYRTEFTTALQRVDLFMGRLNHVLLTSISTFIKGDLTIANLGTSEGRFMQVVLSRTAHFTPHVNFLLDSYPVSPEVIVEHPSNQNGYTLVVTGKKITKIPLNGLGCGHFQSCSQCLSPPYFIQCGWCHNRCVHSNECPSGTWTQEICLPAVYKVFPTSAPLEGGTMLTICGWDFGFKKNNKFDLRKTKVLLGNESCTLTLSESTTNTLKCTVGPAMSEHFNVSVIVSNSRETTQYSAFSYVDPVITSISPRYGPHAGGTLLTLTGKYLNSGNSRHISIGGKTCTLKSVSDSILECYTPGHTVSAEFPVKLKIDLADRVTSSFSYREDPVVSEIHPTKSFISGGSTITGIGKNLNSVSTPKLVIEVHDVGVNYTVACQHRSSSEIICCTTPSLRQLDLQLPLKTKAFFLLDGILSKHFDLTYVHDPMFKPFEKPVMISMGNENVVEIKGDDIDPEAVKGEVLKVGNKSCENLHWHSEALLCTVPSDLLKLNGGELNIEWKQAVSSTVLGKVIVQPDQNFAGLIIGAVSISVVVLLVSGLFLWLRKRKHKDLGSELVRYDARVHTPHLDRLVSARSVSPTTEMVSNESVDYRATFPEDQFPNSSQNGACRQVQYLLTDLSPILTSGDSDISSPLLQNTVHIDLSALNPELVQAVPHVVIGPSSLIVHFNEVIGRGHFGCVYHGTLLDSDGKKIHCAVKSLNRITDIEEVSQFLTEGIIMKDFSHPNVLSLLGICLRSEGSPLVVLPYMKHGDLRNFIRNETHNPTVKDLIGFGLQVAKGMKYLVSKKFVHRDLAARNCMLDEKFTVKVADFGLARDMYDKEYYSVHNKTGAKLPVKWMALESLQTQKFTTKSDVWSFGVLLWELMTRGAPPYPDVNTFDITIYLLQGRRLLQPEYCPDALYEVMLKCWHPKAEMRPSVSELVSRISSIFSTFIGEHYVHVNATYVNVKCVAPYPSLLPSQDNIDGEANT
Source text: as §3
A target sequence for c-Met was designed using RNAi central design program (see the website located at cancan.cshl.edu/). […]. The shRNA was transfected into cells using the lipofectamine method described above. Verification of receptor knockdown was done by creating a c-Met-6-Myc tagged gene product using the Gateway cloning system (Invitrogen). […]

## CCCC[C@@H](N)C(=O)N[C@@H](CCSC)C(=O)N[C@H](C(=O)NCCCCCC(N)=O)[C@@H](C)CC [D-Nle-Met-Ile-NH—(CH2)5—CONH2] (H-[dNle]MI[Ahx]-NH2)
Met
  inhibition of HGF-dependent Met auto-phosphorylation: no ability to effect on Met activation
MDCK cells [1]
  inhibition of HGF-dependent MDCK cell scattering: not different

## DYIRNC (Synthetic hinge peptide) [reference compound]
Hippocampal neurons [2]; Hinge alone, wide range of doses
  effect on basal spinogenesis: no effect on spinogenesis
Hippocampal neurons [2]; neurons stimulated with 10 ng/ml HGF, 10^−12 M Nle1-AngIV or 10^−12 M Dihexa
  inhibition of stimulated spine formation: effectively inhibit spine formation
Hippocampal neurons [3]; 10^−12 M, 5 days (Example 2)
  mean frequency of mEPSCs: 4.51±0.47
MDCK cells [1]; Hinge
  inhibition of scattering of MDCK cells: inhibit scattering
Male Sprague-Dawley rats; aCSF followed by Hinge (no scopolamine), icv
  mean latency to find the pedestal, final day of training (day 8): 46.1 s

## CN1[C@@H]2C[C@@H](OC(=O)[C@H](CO)c3ccccc3)C[C@H]1[C@@H]1O[C@@H]12 [scopolamine, scopolamine hydrobromide]
Male Sprague-Dawley rats; scopolamine icv pretreated rats, agents 300 pmol icv
  mean latency to find the pedestal, final day of training (day 8): 84.8 s

## CCCC[C@@H](N)C(=O)N[C@@H](Cc1c[nH]c2ccccc12)C(=O)N[C@H](C(=O)NCCCCCC(N)=O)[C@@H](C)CC [D-Nle-Trp-Ile-NH—(CH2)5—CONH2] (H-[dNle]WI[Ahx]-NH2)
Met
  inhibition of HGF-dependent Met auto-phosphorylation: intermediate inhibitory activity
MDCK cells [4]
  inhibition of HGF-dependent MDCK cell proliferation: inhibitory activity, albeit less than that observed with the most potent analogs
MDCK cells [1]
  inhibition of HGF-dependent MDCK cell scattering: different from the HGF alone group but not different from the control group

## CCCC[C@H](N)C(=O)N[C@@H](Cc1ccc(O)cc1)C(=O)N[C@H](C(=O)N[C@@H](Cc1c[nH]cn1)C(=O)N1CCC[C@H]1C(=O)N[C@@H](Cc1ccccc1)C(=O)O)[C@@H](C)CC [Nle1-AngIV, reference compound] (H-[Nle]YIHPF-OH; N-terminus and C-terminus assumed)
Hippocampal neurons [2]; 10^−12 M, 5 day treatment, vs vehicle
  fold increase in the number of spines: greater than 2 fold
Hippocampal neurons [3]; 10-12 M, 5 days
  fold increase over control mEPSC frequency: 1.7 fold
Hippocampal neurons [3]; 10-12 M, 5 days (Example 1)
  mean frequency of AMPA-mediated mEPSCs: 5.27 Hz
CA1 hippocampal neurons
  spines per 50 μm dendrite length, CA1 neurons: 11 spines per 50 μm dendrite length
c-Met receptor
  mean spine numbers per 50 μm dendrite length: 20.0
